Source: the NIST ThermoML archive (doi:10.1021/je201211f)

Tests used:
[1] = refractive index (Na D-line) (dimensionless); xn = mol fraction of the nth substance listed; conditions: 298.15 K, 101 kPa, Liquid
[2] = xn = mol fraction of the nth substance listed; conditions: 101 kPa, Liquid; for mass density: Vibrating tube method; for viscosity: Capillary tube (Ostwald / Ubbelohde) method

Cc1cccc(C)c1 [1,3-dimethylbenzene] + CC(=O)O
[1]
Conditions | refractive index
x2 = 0.0962 | 1.4877
x2 = 0.1625 | 1.4829
x2 = 0.3223 | 1.4682
x2 = 0.3797 | 1.4616
x2 = 0.4773 | 1.4523
x2 = 0.557 | 1.4424
x2 = 0.6405 | 1.4319
x2 = 0.7182 | 1.421
x2 = 0.7955 | 1.4066
x2 = 0.8721 | 1.3931
x2 = 0.9649 | 1.3773

[2]
Conditions | mass density, 293.15 K [kg/m3] | mass density, 298.15 K [kg/m3] | mass density, 303.15 K [kg/m3] | viscosity, 298.15 K [mPa·s]
x2 = 0.0777 | 869.99 | 865.62 | 861.24 | –
x2 = 0.0962 | – | – | – | 0.5885
x2 = 0.1623 | 876.98 | 872.54 | – | –
x2 = 0.1625 | – | – | – | 0.5929
x2 = 0.2143 | 881.73 | 877.22 | 872.69 | –
x2 = 0.2833 | 888.6 | 884 | 879.39 | –
x2 = 0.3223 | – | – | – | 0.6061
x2 = 0.35 | 895.97 | 891.29 | 886.59 | –
x2 = 0.3797 | – | – | – | 0.6144
x2 = 0.3896 | 900.67 | 895.94 | 891.18 | –
x2 = 0.4773 | – | – | – | 0.6308
x2 = 0.4801 | 912.73 | 907.88 | 903 | –
x2 = 0.557 | – | – | – | 0.6504
x2 = 0.5621 | 925.38 | 920.41 | 915.43 | –
x2 = 0.6204 | 935.7 | 930.66 | 925.59 | –
x2 = 0.6405 | – | – | – | 0.6798
x2 = 0.7182 | – | – | – | 0.7206
x2 = 0.7214 | 956.29 | 951.08 | 945.86 | –
x2 = 0.7955 | – | – | – | 0.7754
x2 = 0.8155 | 980.67 | 975.31 | 969.94 | –
x2 = 0.8721 | – | – | – | 0.8578
x2 = 0.8758 | 999.34 | 993.89 | 988.44 | –
x2 = 0.9649 | – | – | – | 1.023
x2 = 0.9672 | 1034.28 | 1028.66 | 1023.08 | –
